Measured values from patent publication US7507547B2, “Screening assays for antioxidants and antiproliferative compounds” (University of Massachusetts, priority 2004, dated 2009).
Each block holds one molecule with its values, some of them ahead of it.

How the values were obtained:
NTR1 = target: T1, NTR1 (Homo sapiens, UniProt P30989); assay: ^125I-NT binding to PC3 cells; settings: for NT Binding Assay: ability to enhance NT binding in PC3 cells; for Effect on NT binding in PC3 cells: n=3; for NT binding increased as much as / up to (fold): maximal enhancement of NT binding to PC3 cells
T1 construct: endogenous in cells; host or cells: PC3 cells (ATCC)
T1 sequence (P30989 whole entry): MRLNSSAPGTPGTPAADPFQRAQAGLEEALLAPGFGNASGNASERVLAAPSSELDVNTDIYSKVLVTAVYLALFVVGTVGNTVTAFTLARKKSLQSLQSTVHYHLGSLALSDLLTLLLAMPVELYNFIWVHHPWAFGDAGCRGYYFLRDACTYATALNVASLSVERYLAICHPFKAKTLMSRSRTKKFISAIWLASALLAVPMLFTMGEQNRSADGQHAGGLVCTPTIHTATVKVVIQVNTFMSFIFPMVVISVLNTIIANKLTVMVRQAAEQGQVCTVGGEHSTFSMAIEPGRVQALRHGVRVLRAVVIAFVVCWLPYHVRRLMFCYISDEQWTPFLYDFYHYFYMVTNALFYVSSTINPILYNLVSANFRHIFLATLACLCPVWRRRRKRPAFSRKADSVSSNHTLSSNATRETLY

[1] = set-up: key: +: All of the compounds listed in Table 12 were anticancerous; settings: from anticancer literature; cited from earlier work
[2] = system: NT-induced inositol phosphate (IP) formation in PC3 cells; assay: NT-induced IP formation in PC3 cells; assay type: cell-based; settings: Homo sapiens, PC-3
5-LOX = settings: range of reported values, various blood cell systems; cited from earlier work
[3] = [agent] that decreased IP formation by 40%
[4] = [agent] giving 75% increase in NT binding
[5] = [agent] giving 100% increase in NT binding
[6] = [agent] giving 50% decrease in IP formation

Compound: O[C@H](CS)[C@H](O)CS (racemic) [DTT, dithiothreitol]
- Effect on NT binding (NTR1; general reducing agents and antioxidants): not much affected

Compound: O=CC[C@@H](O)[C@H](O)[C@H](O)CO [2-deoxyglucose]
- NT Binding Assay (NTR1): +
- Anti-cancer [1]: +

Compound: Oc1cc(O)c2c(c1)O[C@H](c1ccc(O)c(O)c1)[C@@H](O)C2 [(+)-catechin]
- Effect on NT binding in PC3 cells (NTR1; used at 10-100 μM): without effect

Compound: O=c1cc(-c2ccc(O)cc2)oc2cc(O)cc(O)c12 [Apigenin]
- NT Binding Assay (NTR1): +
- Anti-cancer [1]: +

Compound: CC(=O)OCOC(=O)CN(CC(=O)OCOC(C)=O)c1ccccc1OCCOc1ccccc1N(CC(=O)OCOC(C)=O)CC(=O)OCOC(C)=O [BAPTA-AM, 1,2-bis(o-aminophenoxy)ethane-N,N,N′,N′-tetraacetic acid tetra(acetoxymethyl) ester]
- Effect on NT binding (NTR1; 50 μM BAPTA-AM): nor was NT binding altered

Compound: COc1ccc(O)c(C(C)(C)C)c1 [BHA, butylated hydroxy anisole]
- EC50 (NTR1; [4]): 110 µM

Compound: O=c1cc(-c2ccccc2)oc2cc(O)c(O)c(O)c12 [Baicalein, baicalein]
- IC50 [2, 3]: > 100 µM
- Anti-cancer [1]: +

Compound: COC(=O)C1=C(C)NC(C)=C([N+](=O)[O-])C1c1ccccc1C(F)(F)F (centres unmarked) [BayK-8644]
- EC50 (NTR1; [4]): 16 µM

Compound: O=C(/C=C/c1ccc(O)c(O)c1)OCCc1ccccc1 [CAPE, caffeic acid phenethyl ester]
- IC50 [2, 3]: 18 µM
- NT Binding Efficacy % increase (NTR1; LOX blockers): 220 % increase
- NT binding increased as much as / up to (fold) (NTR1): ≤ 2.8 fold

Compound: COc1ccc([C@@H]2Sc3ccccc3N(CCN(C)C)C(=O)[C@@H]2OC(C)=O)cc1 [Diltiazem, diltiazem]
- NT Binding Efficacy % increase (NTR1; maximal % increase in NT binding observed for each agent): 38 % increase
- NT binding increased as much as / up to (fold) (NTR1): ≤ 1.4 fold

Compound: c1ccc2c(c1)[I+]c1ccccc1-2 [Diphenylene iodonium]
- IC50 [2, 6]: 35 µM
- NT Binding Assay (NTR1): +
- Anti-cancer [1]: +

Compound: O=C(O)CN(CCOCCOCCN(CC(=O)O)CC(=O)O)CC(=O)O [EGTA, ethylene glycol tetra-acetic acid]
- Increase in NT binding (NTR1): 38±6 % increase

Compound: CCCCCC#CCC#CCC#CCC#CCCCC(=O)O [ETYA, 5,8,11,14-eicosatetraynoic acid]
- IC50 (5-LOX): 6 to 50 µM
- IC50 [2, 3]: 32 µM
- NT Binding Efficacy % increase (NTR1; LOX blockers): 100 % increase
- EC50 (NTR1; [5]): 50 µM

Compound: COc1ccc2c(c1)c(C1=C(c3c[nH]c4ccccc34)C(=O)NC1=O)cn2CCCN(C)C [Go-6983]
- NT Binding Assay (NTR1): +
- Anti-cancer [1]: +

Compound: Cc1cc2c(C(C)C)c(O)c(O)c(C=O)c2c(O)c1-c1c(C)cc2c(C(C)C)c(O)c(O)c(C=O)c2c1O [Gossypol, gossypol]
- IC50 [2, 3]: 20 µM

Compound: CC(=O)N[C@@H](CS)C(=O)O [N-acetyl cysteine]
- Effect on NT binding in PC3 cells (NTR1; used at 1-3 mM): without effect

Compound: CC(Cc1ccc(O)c(O)c1)C(C)Cc1ccc(O)c(O)c1 (centres unmarked) [NDGA, Nordihydroguaiaretic acid]
- IC50 (5-LOX): 0.3 to 2 µM
- IC50 [2, 3]: 7 µM
- NT Binding Efficacy % increase (NTR1; LOX blockers): 230 % increase
- EC50 (NTR1; [5]): 16 µM
- NT Binding Assay (NTR1): +
- Anti-cancer [1]: +

Compound: COCCOC(=O)C1=C(C)NC(C)=C(C(=O)OC(C)C)C1c1cccc([N+](=O)[O-])c1 (centres unmarked) [NIM, nimodipine]
- IC50 [2, 6]: 6 µM

Compound: CC1=C(/C=C/C(C)=C/C=C/C(C)=C/C(=O)O)C(C)(C)CCC1 [Retinoic Acid, retinoic acid]
- IC50 [2, 3]: 7 µM
- NT Binding Efficacy % increase (NTR1; LOX blockers): 180 % increase

Compound: CCCCCC(O)c1cccc(OCc2ccc3ccccc3n2)c1 (centres unmarked) [Rev5901]
- IC50 (5-LOX): 10 µM
- IC50 [2, 3]: 8 µM
- EC50 (NTR1; [5]): 19 µM
- NT binding increased as much as / up to (fold) (NTR1): ≤ 2.4 fold

Compound: Cc1cc(C)c(/C=C2\C(=O)Nc3ccccc32)[nH]1 [SU5416]
- Anti-cancer [1]: +

Compound: CC(=O)O[C@H]1C(=O)[C@@]2(C)[C@H]([C@H](OC(=O)c3ccccc3)[C@]3(O)C[C@H](OC(=O)[C@H](O)[C@@H](NC(=O)c4ccccc4)c4ccccc4)C(C)=C1C3(C)C)[C@]1(OC(C)=O)CO[C@@H]1C[C@@H]2O [Taxol]
- NT Binding Assay (NTR1): +

Further lines, with some results ahead:

- IC50 [2, 3]: 7 µM
- NT Binding Efficacy % increase (NTR1; LOX blockers): 155 % increase
Compound: CC1=C(C)C(=O)C(CCCCC#CCCCC#CCO)=C(C)C1=O [AA861]

- NT Binding Assay (NTR1): +
Compound: COc1cc2ncnc(Nc3cccc(Cl)c3)c2cc1OC [AG1478]
- Anti-cancer [1]: +

- EC50 (NTR1; [5]): 22 µM
Compound: CCNC(=O)[C@H]1O[C@@H](n2cnc3c(N)nc(NCCc4ccc(CCC(=O)O)cc4)nc32)[C@H](O)[C@@H]1O [CGS21683]
- IC50 (5-LOX): 0.01 to 1 µM

- EC50 (NTR1; [4]): 29 µM
Compound: COC(=O)c1c(C)[nH]c(C)c1C(=O)c1ccccc1Cc1ccccc1 [FPL-64176]

- NT Binding Efficacy % increase (NTR1; LOX blockers): 157 % increase
- EC50 (NTR1; [5]): 34 µM
Compound: CCCc1c(OCCCCc2nnn[nH]2)ccc(C(C)=O)c1O [LY171883]

- NT Binding Assay (NTR1): +
Compound: O=C(NCCCCCCNC(=O)ON=C1CCCCC1)ON=C1CCCCC1 [RHC-80267]
- Anti-cancer [1]: +

- NT Binding Assay (NTR1): +
Compound: Cn1cc(C2=C(c3ccc(Cl)cc3Cl)C(=O)NC2=O)c2ccccc21 [SB-216763]
- Anti-cancer [1]: +
